Experimental data as given in ChEMBL document CHEMBL1131672, “6-(1-Hydroxyalkyl))penam sulfone derivatives as inhibitors of class A and class C beta-lactamases II” (Bioorg Med Chem Lett, 1999).
Values after ≈ are worked out from the molar mass of the structure shown.

Tests used:
Escherichia coli [1] = test: In vivo inhibitory activity against Escherichia coli in mice; assay type: functional
Serratia marcescens [2] = test: In vitro inhibitory activity against Serratia marcescens; assay type: functional
Serratia marcescens [3] = test: In vivo inhibitory activity against Serratia marcescens in mice; assay type: functional
Escherichia coli [4] = test: In vitro inhibitory activity against Escherichia coli; assay type: functional
Beta-lactamase TEM = Beta-lactamase TEM (Escherichia coli, UniProt P62593); test: Inhibitory activity against TEM-1 (class A) beta-lactamase
Chain of Beta-lactamase TEM (P62593 whole entry): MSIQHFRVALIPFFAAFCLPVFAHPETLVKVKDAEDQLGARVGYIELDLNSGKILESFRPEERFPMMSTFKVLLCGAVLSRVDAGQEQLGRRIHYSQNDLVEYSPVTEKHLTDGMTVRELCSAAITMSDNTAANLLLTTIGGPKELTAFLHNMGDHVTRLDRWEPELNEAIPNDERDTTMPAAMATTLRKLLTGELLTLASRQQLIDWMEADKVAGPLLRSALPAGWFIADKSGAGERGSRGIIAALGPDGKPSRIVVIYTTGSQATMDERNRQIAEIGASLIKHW

Beta-lactamase = Beta-lactamase (Escherichia coli K-12, UniProt P00811); test: Inhibitory activity against AmpC (class C) beta-lactamase
Chain of Beta-lactamase (P00811 whole entry): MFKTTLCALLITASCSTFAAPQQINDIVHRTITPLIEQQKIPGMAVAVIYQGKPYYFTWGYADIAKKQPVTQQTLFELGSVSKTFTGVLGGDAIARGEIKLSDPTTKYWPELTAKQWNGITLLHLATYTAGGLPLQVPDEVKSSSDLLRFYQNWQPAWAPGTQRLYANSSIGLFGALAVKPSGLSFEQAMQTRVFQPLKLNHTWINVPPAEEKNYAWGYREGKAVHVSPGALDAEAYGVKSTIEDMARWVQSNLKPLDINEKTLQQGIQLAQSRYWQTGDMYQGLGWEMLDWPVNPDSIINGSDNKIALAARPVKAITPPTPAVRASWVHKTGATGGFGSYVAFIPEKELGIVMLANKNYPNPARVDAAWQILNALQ

Row | Compound | ED50 (Escherichia coli [1]) [mg/kg] | MIC (Serratia marcescens [2]) [µg/mL] | ED50 (Serratia marcescens [3]) [mg/kg] | MIC (Escherichia coli [4]) [µg/mL] | IC50 (Beta-lactamase TEM) [nM] | IC50 (Beta-lactamase) [nM]
1 | CC1(C=CC#N)[C@H](C(=O)O)N2C(=O)C[C@H]2S1(=O)=O (single isomer, unassigned) [Ro-481220] | 15 | 4 (≈ 14.8 µM) | 82 | 4 (≈ 14.8 µM) | 42 | 1130
2 | C[C@]1(Cn2ccnn2)[C@H](C(=O)[O-])N2C(=O)C[C@H]2S1(=O)=O.[Na+] [TAZOBACTAM SODIUM] | 7.7 | 32 | 144 | 2 | – | –
3 | C[C@]1(Cn2ccnn2)[C@H](C(=O)[O-])N2C(=O)[C@@H](CO)[C@H]2S1(=O)=O.[Na+] | 3.6 | 16 | 125 | 2 | 6 | –
4 | C[C@]1(/C=C\C#N)[C@H](C(=O)[O-])N2C(=O)[C@@H](CO)[C@H]2S1(=O)=O.[Na+] | 4 | 8 | 16 | 4 | – | 270
5 | CCN1CCN(C(=O)N[C@@H](C(=O)N[C@@H]2C(=O)N3[C@@H]2SC(C)(C)[C@@H]3C(=O)O)c2ccccc2)C(=O)C1=O [PIPERACILLIN] | 256 | 32 (≈ 61.8 µM) | 128 | > 64 | – | –
6 | C[C@]1(/C=C/C#N)[C@H](C(=O)[O-])N2C(=O)[C@@H](CO)[C@H]2S1(=O)=O.[Na+] | – | 4 | – | 16 | – | 280
7 | CO/N=C/C1(C)[C@H](C(=O)O)N2C(=O)[C@@H](CO)[C@H]2S1(=O)=O (single isomer, unassigned) | – | 16 (≈ 52.2 µM) | – | 8 (≈ 26.1 µM) | 64 | 280
